Results published in paper PMC3627577 (2013).
Starred links: 1 amine or outer side, 2 acyl side, 3 side chain; linkers in the order of their positions; H or OH if unused. Positions of bridges follow the written chain, without caps; N, C: chain ends. Non-standard residues stand in square brackets, D forms with d. Residues, ends and D or L forms follow the SMILES beside them. Chains are numbered I, II in the order given. Actinocin(9to1) = Cc1c2oc3c(C)ccc(C(=O)[*:1])c3nc-2c(C(=O)[*:2])c(N)c1=O; NMeV = CN[C@H](C(=O)O)C(C)C; Sar = CNCC(=O)O

Columns and labels:
[1] = system: (CGG)16 (DNA, repeat) CGGCGGCGGCGGCGGCGGCGGCGGCGGCGGCGGCGGCGGCGGCGGCGG; test: UV melting, 260 nm; details: 50 mM NaCl; 20 mM Tris-HCl pH 7.3; 12 μM compound, 1 μM DNA
[2] = system: GG2 hairpin (DNA, hairpin) ATGCGGCATTGTATGCGGCAT; test: SPR kinetics, bivalent ligand model; details: 50 mM NaCl; 20 mM Tris-HCl pH 7.3; ka/kd; site 1 of 2
[3] = system: GC1 hairpin (DNA, hairpin) AAAGCTTTTGTAAAGCTTT; test: SPR kinetics, 1:1 Langmuir; details: 50 mM NaCl; 20 mM Tris-HCl pH 7.3; ka/kd
[4] = system: AT2 hairpin (DNA, hairpin) ATGCATGCATTGTATGCATGCAT; test: SPR kinetics, bivalent ligand model; details: 50 mM NaCl; 20 mM Tris-HCl pH 7.3; ka/kd; site 1 of 2
[5] = system: GC2 hairpin (DNA, hairpin) ATGCGCATTGTATGCGCAT; test: SPR kinetics, bivalent ligand model; details: 50 mM NaCl; 20 mM Tris-HCl pH 7.3; ka/kd; site 1 of 2

ΔTm [1]	Ka1 [2]	Ka1 [3]	Ka1 [4]	Ka1 [5]	SMILES
10.1 °C	–	–	–	–	COc1cccc2c1C(=O)c1c(O)c3c(c(O)c1C2=O)C[C@@](O)(C(C)=O)C[C@@H]3O[C@H]1C[C@H](N)[C@H](O)[C@H](C)O1
11.8 °C	–	–	–	–	Cc1c2ccncc2c(C)c2c1[nH]c1ccccc12
23.4 °C	3.08e+06 M⁻¹	2.29e+06 M⁻¹	1.287e+07 M⁻¹	6.07e+06 M⁻¹	Cc1c2oc3c(C)ccc(C(=O)N[C@@H]4C(=O)N[C@H](C(C)C)C(=O)N5CCC[C@H]5C(=O)N(C)CC(=O)N(C)[C@@H](C(C)C)C(=O)O[C@@H]4C)c3nc-2c(C(=O)N[C@@H]2C(=O)N[C@H](C(C)C)C(=O)N3CCC[C@H]3C(=O)N(C)CC(=O)N(C)[C@@H](C(C)C)C(=O)O[C@@H]2C)c(N)c1=O (I: T[dV]P[Sar][NMeV] / II: T[dV]P[Sar][NMeV]; ester I:1-I:C, II:1-II:C; linker I:N-II:N via Actinocin(9to1))
